The target of one assay is T1, PPARδ (Homo sapiens, UniProt Q03181).
T1 construct: expressed in transfected cells; host or cells: HepG2 (human hepatocarcinoma, ATCC)
T1 sequence (Q03181 1-441): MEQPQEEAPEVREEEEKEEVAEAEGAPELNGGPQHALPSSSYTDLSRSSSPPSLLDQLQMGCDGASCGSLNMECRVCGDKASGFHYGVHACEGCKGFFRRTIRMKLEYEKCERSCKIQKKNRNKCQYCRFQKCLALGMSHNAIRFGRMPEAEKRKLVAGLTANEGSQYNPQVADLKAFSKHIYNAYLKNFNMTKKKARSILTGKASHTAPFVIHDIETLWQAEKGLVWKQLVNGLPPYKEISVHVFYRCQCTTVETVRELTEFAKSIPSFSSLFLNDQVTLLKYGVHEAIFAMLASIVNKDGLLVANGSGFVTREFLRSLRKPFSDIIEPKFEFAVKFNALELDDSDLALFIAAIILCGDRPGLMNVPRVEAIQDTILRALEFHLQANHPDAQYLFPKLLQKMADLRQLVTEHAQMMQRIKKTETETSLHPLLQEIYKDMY
T1 sequence (P19793 1-462 partner): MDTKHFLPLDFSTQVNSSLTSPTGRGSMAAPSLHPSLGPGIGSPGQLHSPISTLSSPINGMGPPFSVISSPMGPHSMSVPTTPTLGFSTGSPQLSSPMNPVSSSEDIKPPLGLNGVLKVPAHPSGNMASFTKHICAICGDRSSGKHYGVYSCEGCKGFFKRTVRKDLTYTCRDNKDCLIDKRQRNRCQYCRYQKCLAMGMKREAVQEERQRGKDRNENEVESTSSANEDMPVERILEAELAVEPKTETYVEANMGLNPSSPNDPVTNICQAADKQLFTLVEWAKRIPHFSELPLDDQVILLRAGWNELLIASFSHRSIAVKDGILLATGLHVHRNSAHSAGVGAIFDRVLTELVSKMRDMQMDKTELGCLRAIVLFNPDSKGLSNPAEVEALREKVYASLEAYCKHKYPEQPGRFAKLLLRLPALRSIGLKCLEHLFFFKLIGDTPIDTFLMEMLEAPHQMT
Briefly: In vitro screening of nuclear receptor agonist: luciferase reporter gene assay in HepG2 cells. It counts as cell-based. Particulars: RXR/PPARδ luciferase reporter gene, 24 h treatment. From the text: Using a reporter gene protocol, the screening model for screening a nuclear receptor agonist in a living cell is designed on a basis of the principal that an activated nuclear receptor can activate transcription of its downstream gene. A reporter gene plasmid is constructed, in which the DNA binding sequence for the nuclear receptor (NRE) is inserted upstream of the luciferase gene, so that the expression of the luciferase gene is placed under the control of the nuclear receptor. Then, the reporter gene plasmid and the nuclear receptor are simultaneously transferred into a cell, and the nuclear receptor is activated when the nuclear receptor agonist is present in the cell culture medium. Then the activated receptor is able to induce the expression of the luciferase gene, while the amount of the luciferase can be determined through its luminous substrate. In this way, the intensity of activation by the compound on the nuclear receptor could be known by observing the luminescence intensity.
The specific operation is described as follows:
The experiment reagents: the compounds to be tested (20 mM, in DMSO, stored at −80° C.).
The hepatocarcinoma cell HepG2 (from ATCC, American Type Culture Collection) was cultured in DMEM medium supplemented with 10% heat-inactivated fetal bovine serum (FBS, Invitogen, Grand Island, N.Y., USA) in a T-75 culture bottle (Greiner, Germany) in a incubator at 37° C., the relative humidity of 100%, and 5% CO2. When the cell culture in the culture bottle reached 80-90% confluency, it was digested with 0.25% Trypsin (with EDTA) for 3 min and inoculated into a 96-well cell culture plate at an inoculating density of 2000 cells/100 μl/well.
In the next day, when the cells in the 96-well culture plate grew up to 50-80% confluency, cell transfection was performed. The cell co-transfection system comprised the FuGene6 transfection agent (Roche Molecular Biochemicals, Indianapolis, Ind., U.S.A.) and 60 ng DNA (long of hRXR, 10 ng of pCMV βGal, 10 ng of the nuclear receptor expression plasmid RXR/PPARδ, 30 ng of GFP fluorescence reporter gene plasmid, respectively).
The cell culture medium was discarded immediately at 24 hours post-transfection and replaced by 200 μl of a fresh DMEM medium containing the medicament to be tested (with 10% FBS treated by activated carbon).
24 h after treatment with the medicament, the cells were lysed with a lysis solution (Cell Culture Lysis buffer, Promega) and centrifuged, and the supernatant was collected. The supernatant was treated with a fluorescence detection kit (Promega) and counted by a fluorescence meter (Ascent Fluoroskan FL reader, Thermo Labsystems, Finland), and the relative intensity of the luciferase was determined. For assaying the β-galactosidase activity used in the experiment as the inner reference (the inner reference calibrating for the transfection efficiency), 50 μl of the supernatant was transferred into a fresh microplate and treated with the Promega kit and read at a wavelength of 405 nm from a microplate reader (Bio-tech Instruments Inc., Winooski, Vt., USA) (Sauerberg, P.; Olsen, G. S.; Jeppesen, L.; Mogensen, J. P. et al., J. Med. Chem., 2007, 50, 1495-1503).
The median effective concentration (EC50) of a sample is a concentration at which the sample has 50% pharmacological effect. This value is one of the important parameters for evaluating pharmacological effects of a compound. In the present screening process, the EC50 of a sample was calculated according to the activation of the receptor by the sample at six different concentrations.
In general terms: Reporter assays use an easily measured gene product as a stand-in for the process of interest.

Assay [1] relates to high fat fodder obese C57BL/6J mice. Briefly: High fat fodder obese mice: levels of blood lipid and blood glucose. It counts as in vivo. Details: HDL / GLU / TC / TG: unit not given here. To be noted: mean ± s, n 5. From the text: 3 week-old male C57BL/6J mice were chosen as experiment animals, 15 of which were randomly selected to feed with a standard fodder, and the remains were allowed to feed with a high fat fodder, with each of the mice being marked by ear-cutting. The body weights and fodder intake of the mice were weighed every week. […] […], the effects of the medicaments on the levels of blood lipid and blood glucose, body weight, and fodder intake in the animals were observed, while a glucose tolerance test was performed to investigate the effects of the medicaments on the glucose tolerance in the animals.

Assay [2] has the same test system. Briefly: High fat fodder obese mice: body weight and food intake. It counts as in vivo. From the text: 3 week-old male C57BL/6J mice were chosen as experiment animals, 15 of which were randomly selected to feed with a standard fodder, and the remains were allowed to feed with a high fat fodder, with each of the mice being marked by ear-cutting. The body weights and fodder intake of the mice were weighed every week. […] After the administration of the inventive compounds for four weeks, the effects of the medicaments on the levels of blood lipid and blood glucose, body weight, and fodder intake in the animals were observed, while a glucose tolerance test was performed to investigate the effects of the medicaments on the glucose tolerance in the animals.

The mark [3] stands for this setting: 2 weeks administration, 10 mg/kg.
Setting [4] is: 2 weeks administration, 30 mg/kg.
The mark [5] stands for this setting: 4 weeks administration, 10 mg/kg.
[6] abbreviates: 4 weeks administration, 30 mg/kg.

In general, EC50 refers to the concentration at which the effect is half-maximal.

Regarding `Cc1cc(OC(c2ccccc2)c2nn(-c3ccc(C(F)(F)F)cc3)c(=O)n2C)ccc1SCC(=O)O` (stereo not shown) [Compound A-2, 2-(2-methyl-4-(1-(3-(4-methyl-5-oxo-1-(4-trifluoromethyl-phenyl)-4,5-dihydrogen-1H-1,2,4-triazolyl))-benzyloxy)-phenylthio)-acetic acid], it took 0.1 µM to reach a half-maximal effect on PPARδ (EC50).
Molecule `Cc1cc(SC(c2ccccc2)c2nn(-c3ccc(C(F)(F)F)cc3)c(=O)n2C)ccc1OCC(=O)O` (stereo not shown) [Compound A-4, 2-(2-methyl-4-(1-(3-(4-methyl-5-oxo-1-(4-trifluoromethyl-phenyl)-4,5-dihydrogen-1H-1,2,4-triazolyl))-benzylthio)-phenoxy)-acetic acid] returned a 50% effective concentration (EC50) on PPARδ of 0.01 µM.
The same measure, in the same setting: then `CCc1cc(OC(c2ccccc2)c2nn(-c3ccc(C(F)(F)F)cc3)c(=O)n2C)ccc1OCC(=O)O` (stereo not shown) [Compound A-5, 2-(2-ethyl-4-(1-(3-(4-methyl-5-oxo-1-(4-trifluoromethyl-phenyl)-4,5-dihydrogen-1H-1,2,4-triazolyl))-benzyloxy)-phenoxy)-acetic acid], with 0.34 µM; and `Cc1cc(OCC(=O)O)ccc1OC(c1ccccc1)c1nn(-c2ccc(C(F)(F)F)cc2)c(=O)n1C` (stereo not shown) [Compound A-6, 2-(3-methyl-4-(1-(3-(4-methyl-5-oxo-1-(4-trifluoromethyl-phenyl)-4,5-dihydrogen-1H-1,2,4-triazolyl))-benzyloxy)-phenoxy)-acetic acid], with 2.09 µM; and `Cc1cc(OCC(=O)O)ccc1SC(c1ccccc1)c1nn(-c2ccc(C(F)(F)F)cc2)c(=O)n1C` (stereo not shown) [Compound A-7, 2-(3-methyl-4-(1-(3-(4-methyl-5-oxo-1-(4-trifluoromethyl-phenyl)-4,5-dihydrogen-1H-1,2,4-triazolyl))-benzylthio)-phenoxy)-acetic acid], with 0.38 µM.
Turning to `Cc1cc(SCc2nn(-c3ccc(C(F)(F)F)cc3)c(=O)n2C)ccc1OCC(=O)O` [Compound A-8, 2-(2-methyl-4-(3-(4-methyl-5-oxo-1-(4-trifluoromethyl-phenyl)-4,5-dihydrogen-1H-1,2,4-triazolyl)-methylthio)-phenoxy)-acetic acid], at PPARδ, it took 3.02 µM to reach a half-maximal effect (EC50).
Molecule `Cc1cc(OCc2nn(-c3ccc(C(F)(F)F)cc3)c(=O)n2C)ccc1OCC(=O)O` [Compound A-9, 2-(2-methyl-4-(3-(4-methyl-5-oxo-1-(4-trifluoromethyl-phenyl)-4,5-dihydrogen-1H-1,2,4-triazolyl)-methoxy)-phenoxy)-acetic acid] gave an EC50 on PPARδ of 6.61 µM.
On the same count and under the same terms, then `Cc1cc(SC(c2ccccc2)c2nn(-c3ccc(C(F)(F)F)cc3)c(=O)n2C)c(C)cc1OCC(=O)O` (stereo not shown) [Compound A-10, 2-(2,5-dimethyl-4-(1-(3-(4-methyl-5-oxo-1-(4-trifluoromethyl-phenyl)-4,5-dihydrogen-1H-1,2,4-triazolyl))-benzylthio)-phenoxy)-acetic acid], with 0.1 µM; and `Cc1cc(SCC(=O)O)ccc1OCc1nn(-c2ccc(C(F)(F)F)cc2)c(=O)n1C` [Compound A-12, 2-(3-methyl-4-(3-(4-methyl-5-oxo-1-(4-trifluoromethyl-phenyl)-4,5-dihydrogen-1H-1,2,4-triazolyl)-methoxy)-phenylthio)-acetic acid], with 0.65 µM.
On the same count and under the same terms, with `Cc1cc(SC(c2ccccc2)c2nn(-c3ccc(C(F)(F)F)cc3)c(=O)n2C)ccc1OC(C)C(=O)O` (stereo not shown) [Compound A-13, 2-methyl-2-(2-methyl-4-(1-(3-(4-methyl-5-oxo-1-(4-trifluoromethyl-phenyl)-4,5-dihydrogen-1H-1,2,4-triazolyl))-benzylthio)-phenoxy)-acetic acid] the figure was 0.02 µM.
Same read-out and setting: with `CCc1cc(SC(c2ccccc2)c2nn(-c3ccc(C(F)(F)F)cc3)c(=O)n2C)ccc1OCC(=O)O` (stereo not shown) [Compound A-14, 2-(2-ethyl-4-(1-(3-(4-methyl-5-oxo-1-(4-trifluoromethyl-phenyl)-4,5-dihydrogen-1H-1,2,4-triazolyl))-benzylthio)-phenoxy)-acetic acid] the figure was less than 0.001 µM.
With `CCCCCCCCCCC[C@@H](C[C@@H]1OC(=O)[C@H]1CCCCCC)OC(=O)[C@H](CC(C)C)NC=O` [Orlistat, reference compound], the GLU in assay [1] (setting [3]) turned out to be 11.11 ± 1.08; in assay [1] (setting [4]) it was 8.81 ± 2.16; in assay [1] (setting [5]), 11.05 ± 1.09; in assay [1] (setting [6]), 9.84 ± 1.83. In addition, the HDL in assay [1] (setting [3]) was 3.29 ± 0.27; in assay [1] (setting [4]), 2.72 ± 0.3; in assay [1] (setting [5]), 2.63 ± 1.27; in assay [1] (setting [6]) it was 2.79 ± 0.35. Moreover, the TC stood at 3.81 ± 2.56 in assay [1] (setting [3]), 3.89 ± 0.44 in assay [1] (setting [4]), 4.24 ± 0.33 in assay [1] (setting [5]) and 3.48 ± 0.54 in assay [1] (setting [6]). Moreover, the TG is on record as 0.36 ± 0.09 in assay [1] (setting [3]), 0.45 ± 0.09 in assay [1] (setting [4]), 0.28 ± 0.03 in assay [1] (setting [5]) and 0.41 ± 0.04 in assay [1] (setting [6]). Also, the Food intake in assay [2] (column 1, 10 mg/kg) worked out at 5.88 g; in assay [2] (column 1, 30 mg/kg), 6.04 g; in assay [2] (column 2, 10 mg/kg) it was 5.42 g; in assay [2] (column 2, 30 mg/kg), 4.66 g; in assay [2] (column 3, 10 mg/kg), 6.7 g; in assay [2] (column 3, 30 mg/kg), 5.52 g. Also, the Food intake in assay [2] (column 4, 10 mg/kg) is 6.64 g; in assay [2] (column 4, 30 mg/kg), 7.78 g; in assay [2] (column 5, 10 mg/kg) it was 6.4 g; in assay [2] (column 5, 30 mg/kg), 7.92 g.

These data come from US8822519B2, “Compound with agitation effect on peroxisome proliferator-activated receptor process for its preparation and use thereof” (Zhejiang Hisun Pharmaceutical Co., Ltd., priority 2008, dated 2014).
